The subject of assay [1] is posterior segment neovascularization (NV). The following applies: intravitreal injection, rat OIR model (Penn 2001); cited from earlier work.
For assay [2] the following is noted: Clark 1999; cited from earlier work.
The subject of assay [3] is choroidal neovascularization (CNV) in C57BL/J mice. The assay is described as follows: Laser-induced choroidal neovascularization (CNV) in mice, rupture of Bruch's membrane. The format is in vivo, mouse. To be noted: for CNV versus vehicle-injected controls: single 5 μl intravitreal injection, 14 days post-laser. From the text:
Choroidal neovascularization (CNV) was induced in C57BL/J mice by rupturing Bruch's membrane via focal laser photocoagulation (FIG. 3). (Tobe T, et al., AM. J. PATHOL., 153:1641-1646 (1998)). Three to four retinal burns were placed in randomly assigned eye using the Alcon 532 nm EyeLite laser (75 μm spot size, 0.1 seconds duration, 120 mW) with a slit lamp delivery system. The laser burns were used to generate a rupture in Bruch's membrane, which was indicated opthalmoscopically by the formation of a bubble under the retina. Only mice with laser burns that produced three bubbles per eye were included in the study. Burns were typically placed at the 3, 6, 9 or 12 o'clock positions in the posterior pole of the retina, avoiding the branch retinal arteries and veins.
Each mouse was randomly assigned into one of the following treatment groups after laser: noninjected controls, sham-injected controls, vehicle-injected mice, or one of three anecortave acetate-injected groups. Control mice received laser photocoagulation in both eyes, where one eye received a sham injection, i.e. a pars plana needle puncture. For intravitreal-injected animals, one laser-treated eye received a 5 μl intravitreal injection of 0%, 0.1%, 1%, or 10% anecortave acetate. The intravitreal injection was performed immediately after laser photocoagulation.
Fourteen days post-laser, all mice were euthanized and systemically perfused with fluorescein-labeled dextran. Eyes were then harvested and prepared as choroidal flat mounts, and the 2-dimensional CNV area was quantified with computerized digital analysis, (Mori K., et al., AM. J. PATHOL. 159:313-320 (2001)). The median CNV area/burn per mouse per treatment was used for statistical analysis; P≦0.05 was considered significant.

With `CC(=O)OCC(=O)[C@@]1(O)CC[C@H]2[C@@H]3CCC4=CC(=O)CC[C@]4(C)C3=CC[C@@]21C` [anecortave acetate, 4,9(11)-pregnadien-17α,21-diol-3,20-dione-21-acetate], in assay [1], the “efficacy against posterior segment neovascularization (NV)” value is recorded as “reproducible efficacy”. For the same molecule, the “conventional glucocorticoid (anti-inflammatory) or mineralocorticoid activity” value in assay [2] is “devoid of conventional glucocorticoid (anti-inflammatory) or mineralocorticoid activity”. For the same molecule, the “CNV versus vehicle-injected controls” value in assay [3] (0.1% anecortave acetate) and in assay [3] (1% anecortave acetate) was “No difference” throughout. Further, the “CNV development seen as hyperfluorescent area at the site of laser photocoagulation (FIG. 4)” value in assay [3] (10% anecortave acetate versus controls, choroidal flat mounts, fluorescein-labeled dextran) is “gross reduction in CNV development”. Moreover, in assay [3] (single intravitreal injection in the mouse), the “effect on laser-induced choroidal neovascularization (FIG. 5)” value is “inhibits laser-induced choroidal neovascularization”.

(Values after patent US20080234245A1, “Angiostatic Agents for Controlling Choroidal Neovascularisation After Ocular Surgery or Trauma” (priority 2004, published 2008).)
